Literature values as cited in patent publication EP0333071A2, “Polypeptides, methods for their preparation, pharmaceutical compositions comprising them and use” (Eisai Co., Ltd., priority 1988, dated 1989).

Test system: enhancement in the quantity of spontaneous motion induced by methamphethamine
Details: general administration; comparison statement for neurotensin or derivatives thereof

Substance: neurotensin
- methamphethamine antagonism: hardly exhibit methamphethamine antagonism
